Data reported in ChEMBL document CHEMBL4507284, “Data for DCP probe BI-1230” (2021).

Key:
[1] = molecular target: Serine/threonine-protein kinase RIO1 (Homo sapiens) (UniProt Q9BRS2); conditions: Compound concentration 1000.0 nM
[2] = molecular target: Cyclin-dependent kinase 19 (Homo sapiens) (UniProt Q9BWU1); conditions: Compound concentration 1000.0 nM
[3] = molecular target: Glycogen synthase kinase-3 alpha (Homo sapiens) (UniProt P49840); conditions: Compound concentration 1000.0 nM
[4] = molecular target: Cyclin-dependent kinase 11A (Homo sapiens) (UniProt Q9UQ88); conditions: Compound concentration 1000.0 nM
[5] = tested on: Receptor-type tyrosine-protein kinase FLT3 (Homo sapiens), P36888 [UNDEFINED MUTATION]; conditions: Compound concentration 1000.0 nM
[6] = tested on: Epidermal growth factor receptor (Homo sapiens), P00533 [L858R]; conditions: Compound concentration 1000.0 nM
[7] = tested on: Mast/stem cell growth factor receptor Kit (Homo sapiens), P10721 [D816V]; conditions: Compound concentration 1000.0 nM
[8] = molecular target: STE20-like serine/threonine-protein kinase (Homo sapiens) (UniProt Q9H2G2); conditions: Compound concentration 1000.0 nM
[9] = molecular target: Myosin light chain kinase family member 4 (Homo sapiens) (UniProt Q86YV6); conditions: Compound concentration 1000.0 nM
[10] = tested on: Phosphatidylinositol 4,5-bisphosphate 3-kinase catalytic subunit alpha isoform (Homo sapiens), P42336 [E542K]; conditions: Compound concentration 1000.0 nM
[11] = molecular target: NUAK family SNF1-like kinase 1 (Homo sapiens) (UniProt O60285); conditions: Compound concentration 1000.0 nM
[12] = molecular target: 5-hydroxytryptamine receptor 1E (Homo sapiens) (UniProt P28566); conditions: Compound concentration 10.0 uM
[13] = molecular target: Cyclin-dependent kinase 15 (Homo sapiens) (UniProt Q96Q40); conditions: Compound concentration 1000.0 nM
[14] = molecular target: Mitogen-activated protein kinase 10 (Homo sapiens) (UniProt P53779); conditions: Compound concentration 1000.0 nM
[15] = molecular target: Hormonally up-regulated neu tumor-associated kinase (Homo sapiens) (UniProt P57058); conditions: Compound concentration 1000.0 nM
[16] = tested on: Epidermal growth factor receptor (Homo sapiens), P00533 [G719S]; conditions: Compound concentration 1000.0 nM
[17] = molecular target: Testis-specific serine/threonine-protein kinase 3 (Homo sapiens) (UniProt Q96PN8); conditions: Compound concentration 1000.0 nM
[18] = molecular target: Serine/threonine-protein kinase TAO2 (Homo sapiens) (UniProt Q9UL54); conditions: Compound concentration 1000.0 nM
[19] = molecular target: Discoidin domain-containing receptor 2 (Homo sapiens) (UniProt Q16832); conditions: Compound concentration 1000.0 nM
[20] = molecular target: NT-3 growth factor receptor (Homo sapiens) (UniProt Q16288); conditions: Compound concentration 1000.0 nM
[21] = molecular target: Cyclin-dependent kinase 16 (Homo sapiens) (UniProt Q00536); conditions: Compound concentration 1000.0 nM
[22] = tested on: Tyrosine-protein kinase ABL1 (Homo sapiens), P00519 [Q252H]; conditions: Compound concentration 1000.0 nM
[23] = molecular target: Tyrosine-protein kinase Fes/Fps (Homo sapiens) (UniProt P07332); conditions: Compound concentration 1000.0 nM
[24] = molecular target: Calcium/calmodulin-dependent protein kinase type 1D (Homo sapiens) (UniProt Q8IU85); conditions: Compound concentration 1000.0 nM
[25] = molecular target: Beta-2 adrenergic receptor (Homo sapiens) (UniProt P07550); conditions: Compound concentration 10.0 uM
[26] = molecular target: Myosin light chain kinase 2, skeletal/cardiac muscle (Homo sapiens) (UniProt Q9H1R3); conditions: Compound concentration 1000.0 nM
[27] = molecular target: Dual specificity protein kinase CLK2 (Homo sapiens) (UniProt P49760); conditions: Compound concentration 1000.0 nM
[28] = molecular target: Serine/threonine-protein kinase tousled-like 2 (Homo sapiens) (UniProt Q86UE8); conditions: Compound concentration 1000.0 nM
[29] = molecular target: Insulin receptor (Homo sapiens) (UniProt P06213); conditions: Compound concentration 1000.0 nM
[30] = molecular target: Vascular endothelial growth factor receptor 1 (Homo sapiens) (UniProt P17948); conditions: Compound concentration 1000.0 nM
[31] = molecular target: Ribosomal protein S6 kinase alpha-3 (Homo sapiens) (UniProt P51812); conditions: Compound concentration 1000.0 nM
[32] = molecular target: Ephrin type-A receptor 8 (Homo sapiens) (UniProt P29322); conditions: Compound concentration 1000.0 nM
[33] = molecular target: Wee1-like protein kinase 2 (Homo sapiens) (UniProt P0C1S8); conditions: Compound concentration 1000.0 nM
[34] = molecular target: Ephrin type-B receptor 2 (Homo sapiens) (UniProt P29323); conditions: Compound concentration 1000.0 nM
[35] = tested on: Tyrosine-protein kinase ABL1 (Homo sapiens), P00519 [H396P]; conditions: Compound concentration 1000.0 nM
[36] = molecular target: Sodium-dependent noradrenaline transporter (Homo sapiens) (UniProt P23975); conditions: Compound concentration 10.0 uM
[37] = molecular target: Serine/threonine-protein kinase MARK2 (Homo sapiens) (UniProt Q7KZI7); conditions: Compound concentration 1000.0 nM
[38] = molecular target: Mitogen-activated protein kinase kinase kinase 14 (Homo sapiens) (UniProt Q99558); conditions: Compound concentration 1000.0 nM
[39] = molecular target: TGF-beta receptor type-1 (Homo sapiens) (UniProt P36897); conditions: Compound concentration 1000.0 nM
[40] = molecular target: Sigma intracellular receptor 2 (Homo sapiens) (UniProt Q5BJF2); conditions: Compound concentration 10.0 uM
[41] = molecular target: Calcium-dependent protein kinase 1 (Plasmodium falciparum) (UniProt P62344); conditions: Compound concentration 1000.0 nM
[42] = molecular target: Ribosomal protein S6 kinase alpha-4 (Homo sapiens) (UniProt O75676); conditions: Compound concentration 1000.0 nM
[43] = molecular target: Mitogen-activated protein kinase 13 (Homo sapiens) (UniProt O15264); conditions: Compound concentration 1000.0 nM
[44] = tested on: Leucine-rich repeat serine/threonine-protein kinase 2 (Homo sapiens), Q5S007 [G2019S]; conditions: Compound concentration 1000.0 nM
[45] = molecular target: Interleukin-1 receptor-associated kinase 4 (Homo sapiens) (UniProt Q9NWZ3); conditions: Compound concentration 1000.0 nM

Chain of Mitogen-activated protein kinase 13 (Homo sapiens) (O15264 whole entry): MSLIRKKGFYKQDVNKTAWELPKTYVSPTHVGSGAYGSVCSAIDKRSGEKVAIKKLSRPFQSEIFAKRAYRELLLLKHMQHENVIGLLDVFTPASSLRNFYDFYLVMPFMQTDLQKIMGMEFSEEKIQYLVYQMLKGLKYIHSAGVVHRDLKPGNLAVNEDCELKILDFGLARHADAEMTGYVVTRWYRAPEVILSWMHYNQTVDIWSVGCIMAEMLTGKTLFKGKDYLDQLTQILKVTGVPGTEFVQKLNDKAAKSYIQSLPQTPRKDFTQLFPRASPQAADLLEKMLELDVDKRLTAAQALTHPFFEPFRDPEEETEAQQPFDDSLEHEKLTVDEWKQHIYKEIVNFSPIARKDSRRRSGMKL
Chain of TGF-beta receptor type-1 (Homo sapiens) (P36897 whole entry): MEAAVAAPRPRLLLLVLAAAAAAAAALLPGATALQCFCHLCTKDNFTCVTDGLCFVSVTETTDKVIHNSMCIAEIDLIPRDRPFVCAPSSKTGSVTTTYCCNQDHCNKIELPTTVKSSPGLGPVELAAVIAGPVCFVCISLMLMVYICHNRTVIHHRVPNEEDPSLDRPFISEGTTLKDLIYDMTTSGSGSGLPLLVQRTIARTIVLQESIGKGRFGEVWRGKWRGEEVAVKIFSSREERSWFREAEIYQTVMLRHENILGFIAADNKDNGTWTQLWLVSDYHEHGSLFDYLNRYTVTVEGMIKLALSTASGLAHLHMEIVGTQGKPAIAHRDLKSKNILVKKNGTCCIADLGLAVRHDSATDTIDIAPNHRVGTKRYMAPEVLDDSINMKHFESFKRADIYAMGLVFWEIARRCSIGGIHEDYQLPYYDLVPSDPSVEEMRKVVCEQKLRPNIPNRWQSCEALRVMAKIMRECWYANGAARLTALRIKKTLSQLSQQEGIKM
Chain of Calcium/calmodulin-dependent protein kinase type 1D (Homo sapiens) (Q8IU85 whole entry, looked up): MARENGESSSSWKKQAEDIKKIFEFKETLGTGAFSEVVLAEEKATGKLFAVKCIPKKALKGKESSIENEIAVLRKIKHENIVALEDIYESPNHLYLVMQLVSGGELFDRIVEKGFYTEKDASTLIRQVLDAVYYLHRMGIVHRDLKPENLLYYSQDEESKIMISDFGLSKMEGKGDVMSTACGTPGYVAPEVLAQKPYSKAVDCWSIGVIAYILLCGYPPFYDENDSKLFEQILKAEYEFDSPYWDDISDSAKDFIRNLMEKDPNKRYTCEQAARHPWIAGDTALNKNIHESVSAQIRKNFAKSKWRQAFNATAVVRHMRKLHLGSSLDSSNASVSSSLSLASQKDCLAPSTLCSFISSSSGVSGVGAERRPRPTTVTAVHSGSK
Chain of Dual specificity protein kinase CLK2 (Homo sapiens) (P49760 whole entry, looked up): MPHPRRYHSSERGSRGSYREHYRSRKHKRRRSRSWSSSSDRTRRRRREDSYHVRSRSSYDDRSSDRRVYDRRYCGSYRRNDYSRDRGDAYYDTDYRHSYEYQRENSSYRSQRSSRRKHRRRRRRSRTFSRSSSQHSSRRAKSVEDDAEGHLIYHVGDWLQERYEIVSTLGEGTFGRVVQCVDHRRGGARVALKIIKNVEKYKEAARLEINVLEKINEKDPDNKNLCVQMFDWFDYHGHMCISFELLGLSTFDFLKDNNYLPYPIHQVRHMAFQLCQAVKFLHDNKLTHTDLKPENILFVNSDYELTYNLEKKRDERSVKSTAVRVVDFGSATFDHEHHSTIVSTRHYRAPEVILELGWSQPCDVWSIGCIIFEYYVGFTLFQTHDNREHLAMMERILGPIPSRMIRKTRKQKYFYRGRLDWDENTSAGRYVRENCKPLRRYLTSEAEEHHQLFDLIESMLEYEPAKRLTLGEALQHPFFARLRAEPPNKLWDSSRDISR
Chain of Cyclin-dependent kinase 11A (Homo sapiens) (Q9UQ88 whole entry): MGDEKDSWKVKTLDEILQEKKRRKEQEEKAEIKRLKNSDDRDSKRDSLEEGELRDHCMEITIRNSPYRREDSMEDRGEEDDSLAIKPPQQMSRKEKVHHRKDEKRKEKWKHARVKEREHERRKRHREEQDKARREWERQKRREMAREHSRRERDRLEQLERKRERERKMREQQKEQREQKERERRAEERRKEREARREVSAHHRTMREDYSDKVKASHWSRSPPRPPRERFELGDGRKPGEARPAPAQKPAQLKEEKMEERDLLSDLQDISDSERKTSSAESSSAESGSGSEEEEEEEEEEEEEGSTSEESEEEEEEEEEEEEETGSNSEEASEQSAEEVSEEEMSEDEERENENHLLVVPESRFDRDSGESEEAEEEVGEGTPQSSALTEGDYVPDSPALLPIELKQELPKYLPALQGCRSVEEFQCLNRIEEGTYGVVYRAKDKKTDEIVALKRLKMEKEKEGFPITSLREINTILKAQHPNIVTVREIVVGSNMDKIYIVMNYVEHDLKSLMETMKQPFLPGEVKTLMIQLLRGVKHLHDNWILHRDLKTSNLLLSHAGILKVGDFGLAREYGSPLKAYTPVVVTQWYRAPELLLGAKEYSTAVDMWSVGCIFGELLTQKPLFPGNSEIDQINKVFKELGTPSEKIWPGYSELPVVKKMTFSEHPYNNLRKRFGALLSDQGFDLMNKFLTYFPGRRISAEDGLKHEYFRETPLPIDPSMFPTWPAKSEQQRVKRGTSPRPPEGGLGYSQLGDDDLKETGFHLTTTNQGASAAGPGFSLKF
Chain of Serine/threonine-protein kinase tousled-like 2 (Homo sapiens) (Q86UE8 whole entry, looked up): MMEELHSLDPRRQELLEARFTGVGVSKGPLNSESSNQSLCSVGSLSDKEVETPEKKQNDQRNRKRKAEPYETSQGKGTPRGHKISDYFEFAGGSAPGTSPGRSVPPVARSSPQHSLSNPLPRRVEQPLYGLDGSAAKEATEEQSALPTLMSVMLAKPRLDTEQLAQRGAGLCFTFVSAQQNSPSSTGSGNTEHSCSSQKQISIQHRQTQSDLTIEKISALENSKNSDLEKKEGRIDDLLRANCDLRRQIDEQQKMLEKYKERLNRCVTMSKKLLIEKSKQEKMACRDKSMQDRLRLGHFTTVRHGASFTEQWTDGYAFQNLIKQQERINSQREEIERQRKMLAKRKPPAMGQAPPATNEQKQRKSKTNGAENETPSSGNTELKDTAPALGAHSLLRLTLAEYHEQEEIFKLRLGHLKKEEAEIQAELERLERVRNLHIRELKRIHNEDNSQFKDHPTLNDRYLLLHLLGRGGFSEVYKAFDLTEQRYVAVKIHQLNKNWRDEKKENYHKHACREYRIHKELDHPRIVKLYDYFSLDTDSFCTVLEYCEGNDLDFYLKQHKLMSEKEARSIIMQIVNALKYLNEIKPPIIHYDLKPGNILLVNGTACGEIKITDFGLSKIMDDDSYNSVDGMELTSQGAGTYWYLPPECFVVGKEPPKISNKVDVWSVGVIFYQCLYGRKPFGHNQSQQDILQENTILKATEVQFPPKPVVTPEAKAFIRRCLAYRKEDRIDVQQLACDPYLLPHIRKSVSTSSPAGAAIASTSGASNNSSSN
Chain of Receptor-type tyrosine-protein kinase FLT3 (Homo sapiens), P36888 [UNDEFINED MUTATION] (P36888 whole entry, looked up, stated change not applied): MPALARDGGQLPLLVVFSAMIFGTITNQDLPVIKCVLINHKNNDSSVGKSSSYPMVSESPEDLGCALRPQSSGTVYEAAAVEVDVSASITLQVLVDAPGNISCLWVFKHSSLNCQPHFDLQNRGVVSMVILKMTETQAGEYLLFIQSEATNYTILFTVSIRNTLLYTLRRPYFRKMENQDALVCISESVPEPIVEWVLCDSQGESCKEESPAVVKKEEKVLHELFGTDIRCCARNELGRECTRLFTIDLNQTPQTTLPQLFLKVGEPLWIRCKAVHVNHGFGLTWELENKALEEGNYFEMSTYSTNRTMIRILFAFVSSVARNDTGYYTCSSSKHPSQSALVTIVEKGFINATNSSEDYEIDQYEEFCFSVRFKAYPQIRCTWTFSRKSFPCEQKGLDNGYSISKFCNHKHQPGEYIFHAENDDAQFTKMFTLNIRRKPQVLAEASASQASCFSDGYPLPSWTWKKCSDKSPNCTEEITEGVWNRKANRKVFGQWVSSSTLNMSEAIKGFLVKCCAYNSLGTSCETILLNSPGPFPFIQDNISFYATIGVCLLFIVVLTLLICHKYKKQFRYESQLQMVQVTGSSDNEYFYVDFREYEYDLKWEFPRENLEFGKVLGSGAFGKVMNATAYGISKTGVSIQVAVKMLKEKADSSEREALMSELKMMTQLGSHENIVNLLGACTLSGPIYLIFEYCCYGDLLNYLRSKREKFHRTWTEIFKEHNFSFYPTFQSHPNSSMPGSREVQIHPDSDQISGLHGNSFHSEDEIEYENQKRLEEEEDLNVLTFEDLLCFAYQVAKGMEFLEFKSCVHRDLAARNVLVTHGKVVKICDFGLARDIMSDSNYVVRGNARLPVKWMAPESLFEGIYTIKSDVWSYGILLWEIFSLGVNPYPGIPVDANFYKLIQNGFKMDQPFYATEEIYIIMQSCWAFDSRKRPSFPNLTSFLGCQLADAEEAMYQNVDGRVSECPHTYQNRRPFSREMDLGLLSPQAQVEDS
Chain of Beta-2 adrenergic receptor (Homo sapiens) (P07550 whole entry, looked up): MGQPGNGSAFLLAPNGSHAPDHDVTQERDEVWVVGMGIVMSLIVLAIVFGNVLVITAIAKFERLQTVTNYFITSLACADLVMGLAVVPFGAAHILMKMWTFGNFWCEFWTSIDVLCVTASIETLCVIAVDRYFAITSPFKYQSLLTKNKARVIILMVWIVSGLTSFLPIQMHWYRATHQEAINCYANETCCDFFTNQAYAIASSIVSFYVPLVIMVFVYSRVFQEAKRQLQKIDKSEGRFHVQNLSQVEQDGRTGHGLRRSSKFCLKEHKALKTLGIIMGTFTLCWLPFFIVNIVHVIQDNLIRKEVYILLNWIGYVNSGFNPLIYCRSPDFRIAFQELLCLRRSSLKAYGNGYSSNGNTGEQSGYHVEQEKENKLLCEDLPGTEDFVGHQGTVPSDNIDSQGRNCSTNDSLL
Chain of Testis-specific serine/threonine-protein kinase 3 (Homo sapiens) (Q96PN8 whole entry): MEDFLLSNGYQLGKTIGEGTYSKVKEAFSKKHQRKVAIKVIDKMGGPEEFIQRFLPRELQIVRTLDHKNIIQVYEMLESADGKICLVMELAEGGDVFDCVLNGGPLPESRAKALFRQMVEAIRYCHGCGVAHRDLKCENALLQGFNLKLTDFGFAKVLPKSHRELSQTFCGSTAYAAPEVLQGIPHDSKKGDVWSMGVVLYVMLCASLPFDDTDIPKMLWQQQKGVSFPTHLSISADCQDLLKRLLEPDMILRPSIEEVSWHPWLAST

COc1ccc2c(O[C@@H]3C[C@H]4C(=O)N[C@]5(C(=O)O)CC5/C=C\CCCCC[C@H](NC(=O)OC5CCCC5)C(=O)N4C3)cc(-c3csc(NC(=O)C(C)C)n3)nc2c1C (stereo not given in full) [BI 1230]
inactive: residual activity [1] 93% | residual activity [2] 90% | residual activity [3] 100% | residual activity [4] 99% | residual activity [5] 71% | residual activity [6] 100% | residual activity [7] 95% | residual activity [8] 100% | residual activity [9] 81% | residual activity [10] 71% | residual activity [11] 92% | inhibition [12] 14.9% | residual activity [13] 100% | residual activity [14] 71% | residual activity [15] 100% | residual activity [16] 76% | residual activity [17] 80% | residual activity [18] 98% | residual activity [19] 88% | residual activity [20] 97% | residual activity [21] 79% | residual activity [22] 80% | residual activity [23] 100% | residual activity [24] 100% | inhibition [25] 24.6% | residual activity [26] 100% | residual activity [27] 100% | residual activity [28] 100% | residual activity [29] 94% | residual activity [30] 95% | residual activity [31] 82% | residual activity [32] 100% | residual activity [33] 100% | residual activity [34] 98% | residual activity [35] 91% | inhibition [36] -4.46% | residual activity [37] 100% | residual activity [38] 89% | residual activity [39] 100% | inhibition [40] 28% | residual activity [41] 100% | residual activity [42] 72% | residual activity [43] 100% | residual activity [44] 91% | residual activity [45] 71%

O=C(N[C@H]1CCCCC/C=C\C2C[C@@]2(C(=O)O)NC(=O)[C@@H]2C[C@@H](Oc3ccncc3)CN2C1=O)OC1CCCC1 (stereo not given in full) [BI 1675]
inactive: residual activity [1] 63% | residual activity [2] 91% | residual activity [3] 100% | residual activity [4] 88% | residual activity [5] 100% | residual activity [6] 96% | residual activity [7] 90% | residual activity [8] 100% | residual activity [9] 100% | residual activity [10] 96% | residual activity [11] 99% | inhibition [12] 0% | residual activity [13] 100% | residual activity [14] 81% | residual activity [15] 100% | residual activity [16] 63% | residual activity [17] 100% | residual activity [18] 100% | residual activity [19] 100% | residual activity [20] 100% | residual activity [21] 83% | residual activity [22] 85% | residual activity [23] 100% | residual activity [24] 94% | inhibition [25] 12.8% | residual activity [26] 100% | residual activity [27] 100% | residual activity [28] 100% | residual activity [29] 100% | residual activity [30] 100% | residual activity [31] 89% | residual activity [32] 100% | residual activity [33] 100% | residual activity [34] 91% | residual activity [35] 71% | inhibition [36] -6.94% | residual activity [37] 81% | residual activity [38] 100% | residual activity [39] 100% | inhibition [40] 18.5% | residual activity [41] 73% | residual activity [42] 85% | residual activity [43] 96% | residual activity [44] 86% | residual activity [45] 88%
